How the values were obtained:
[1] = target: Tyrosine-protein kinase FRK (Homo sapiens) (UniProt P42685); assay: Binding affinity to wild-type human partial length FRK (A215 to F503 residues) expressed in bacterial expression system assessed as residual binding level at 10 uM by Kinomescan method relative to control
[2] = test system: Tyrosine-protein kinase ABL1 (Homo sapiens), P00519 [Y253F]; assay: Binding affinity to human phosphorylated ABL1 Y253F mutant (S229 to K512 residues) expressed in mammalian expression system assessed as residual binding level at 10 uM by Kinomescan method relative to control
[3] = target: LIM domain kinase 1 (Homo sapiens) (UniProt P53667); assay: Binding affinity to wild-type human full length LIMK1 (M1 to D647 residues) expressed in bacterial expression system assessed as residual binding level at 10 uM by Kinomescan method relative to control
[4] = target: Homeodomain-interacting protein kinase 2 (Homo sapiens) (UniProt Q9H2X6); assay: Binding affinity to wild-type human partial length HIPK2 (M153 to S564 residues) expressed in mammalian expression system assessed as residual binding level at 10 uM by Kinomescan method relative to control
[5] = target: Tyrosine-protein kinase HCK (Homo sapiens) (UniProt P08631); assay: Binding affinity to wild-type human full length HCK (M22 to P526 residues) expressed in bacterial expression system assessed as residual binding level at 10 uM by Kinomescan method relative to control
Tyrosine-protein kinase HCK (Homo sapiens), sequence (P08631 2-526 limits assumed): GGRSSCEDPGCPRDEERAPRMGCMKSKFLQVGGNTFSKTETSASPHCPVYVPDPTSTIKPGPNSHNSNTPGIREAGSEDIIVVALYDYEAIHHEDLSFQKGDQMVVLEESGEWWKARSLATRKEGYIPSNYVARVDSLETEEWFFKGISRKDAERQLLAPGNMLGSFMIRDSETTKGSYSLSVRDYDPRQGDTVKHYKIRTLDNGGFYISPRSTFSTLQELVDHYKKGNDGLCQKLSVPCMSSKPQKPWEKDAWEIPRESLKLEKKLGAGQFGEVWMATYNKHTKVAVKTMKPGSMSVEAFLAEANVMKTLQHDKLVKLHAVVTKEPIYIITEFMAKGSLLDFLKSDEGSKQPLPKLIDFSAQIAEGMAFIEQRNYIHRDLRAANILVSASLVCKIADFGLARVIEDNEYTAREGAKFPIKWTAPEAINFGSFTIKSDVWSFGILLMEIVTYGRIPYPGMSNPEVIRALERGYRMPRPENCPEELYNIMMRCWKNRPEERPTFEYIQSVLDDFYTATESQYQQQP

[6] = target: Dual specificity protein kinase CLK4 (Homo sapiens) (UniProt Q9HAZ1); assay: Binding affinity to wild-type human partial length CLK4 (R135 to K481 residues) expressed in bacterial expression system assessed as residual binding level at 10 uM by Kinomescan method relative to control
[7] = target: CDK4/Cyclin D3 (Homo sapiens) (UniProt P11802+P30281); assay: Binding affinity to wild-type human full length CDK4/cyclinD3 (M1 to E303 residues) expressed in mammalian expression system assessed as residual binding level at 10 uM by Kinomescan method relative to control
[8] = target: Uncharacterized serine/threonine-protein kinase SBK3 (Homo sapiens) (UniProt P0C264); assay: Binding affinity to wild-type human partial length SgK110 (L22 to R329 residues) expressed in bacterial expression system assessed as residual binding level at 10 uM by Kinomescan method relative to control
Uncharacterized serine/threonine-protein kinase SBK3 (Homo sapiens), sequence (P0C264 whole entry, the tested form may be a part): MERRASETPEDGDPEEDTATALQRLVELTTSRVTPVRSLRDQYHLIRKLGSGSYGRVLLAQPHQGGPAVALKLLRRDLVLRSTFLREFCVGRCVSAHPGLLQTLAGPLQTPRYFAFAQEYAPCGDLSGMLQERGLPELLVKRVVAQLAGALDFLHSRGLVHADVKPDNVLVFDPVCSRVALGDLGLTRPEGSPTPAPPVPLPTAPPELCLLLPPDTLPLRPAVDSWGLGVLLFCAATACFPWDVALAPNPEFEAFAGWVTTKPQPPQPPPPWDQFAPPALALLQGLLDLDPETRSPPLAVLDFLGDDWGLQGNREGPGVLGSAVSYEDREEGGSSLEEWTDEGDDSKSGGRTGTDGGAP

[9] = target: Serine/threonine-protein kinase DCLK3 (Homo sapiens) (UniProt Q9C098); assay: Binding affinity to wild-type human partial length DCAMKL3 (E140 to V628 residues) expressed in bacterial expression system assessed as residual binding level at 10 uM by Kinomescan method relative to control
[10] = target: RAF proto-oncogene serine/threonine-protein kinase (Homo sapiens) (UniProt P04049); assay: Binding affinity to wild-type human partial length RAF1 (I330 to T640 residues) expressed in bacterial expression system assessed as residual binding level at 10 uM by Kinomescan method relative to control
[11] = target: Vascular endothelial growth factor receptor 3 (Homo sapiens) (UniProt P35916); assay: Binding affinity to wild-type human partial length FLT4 (E821 to E1196 residues) expressed in bacterial expression system assessed as residual binding level at 10 uM by Kinomescan method relative to control
Vascular endothelial growth factor receptor 3 (Homo sapiens), sequence (P35916 whole entry, the tested form may be a part): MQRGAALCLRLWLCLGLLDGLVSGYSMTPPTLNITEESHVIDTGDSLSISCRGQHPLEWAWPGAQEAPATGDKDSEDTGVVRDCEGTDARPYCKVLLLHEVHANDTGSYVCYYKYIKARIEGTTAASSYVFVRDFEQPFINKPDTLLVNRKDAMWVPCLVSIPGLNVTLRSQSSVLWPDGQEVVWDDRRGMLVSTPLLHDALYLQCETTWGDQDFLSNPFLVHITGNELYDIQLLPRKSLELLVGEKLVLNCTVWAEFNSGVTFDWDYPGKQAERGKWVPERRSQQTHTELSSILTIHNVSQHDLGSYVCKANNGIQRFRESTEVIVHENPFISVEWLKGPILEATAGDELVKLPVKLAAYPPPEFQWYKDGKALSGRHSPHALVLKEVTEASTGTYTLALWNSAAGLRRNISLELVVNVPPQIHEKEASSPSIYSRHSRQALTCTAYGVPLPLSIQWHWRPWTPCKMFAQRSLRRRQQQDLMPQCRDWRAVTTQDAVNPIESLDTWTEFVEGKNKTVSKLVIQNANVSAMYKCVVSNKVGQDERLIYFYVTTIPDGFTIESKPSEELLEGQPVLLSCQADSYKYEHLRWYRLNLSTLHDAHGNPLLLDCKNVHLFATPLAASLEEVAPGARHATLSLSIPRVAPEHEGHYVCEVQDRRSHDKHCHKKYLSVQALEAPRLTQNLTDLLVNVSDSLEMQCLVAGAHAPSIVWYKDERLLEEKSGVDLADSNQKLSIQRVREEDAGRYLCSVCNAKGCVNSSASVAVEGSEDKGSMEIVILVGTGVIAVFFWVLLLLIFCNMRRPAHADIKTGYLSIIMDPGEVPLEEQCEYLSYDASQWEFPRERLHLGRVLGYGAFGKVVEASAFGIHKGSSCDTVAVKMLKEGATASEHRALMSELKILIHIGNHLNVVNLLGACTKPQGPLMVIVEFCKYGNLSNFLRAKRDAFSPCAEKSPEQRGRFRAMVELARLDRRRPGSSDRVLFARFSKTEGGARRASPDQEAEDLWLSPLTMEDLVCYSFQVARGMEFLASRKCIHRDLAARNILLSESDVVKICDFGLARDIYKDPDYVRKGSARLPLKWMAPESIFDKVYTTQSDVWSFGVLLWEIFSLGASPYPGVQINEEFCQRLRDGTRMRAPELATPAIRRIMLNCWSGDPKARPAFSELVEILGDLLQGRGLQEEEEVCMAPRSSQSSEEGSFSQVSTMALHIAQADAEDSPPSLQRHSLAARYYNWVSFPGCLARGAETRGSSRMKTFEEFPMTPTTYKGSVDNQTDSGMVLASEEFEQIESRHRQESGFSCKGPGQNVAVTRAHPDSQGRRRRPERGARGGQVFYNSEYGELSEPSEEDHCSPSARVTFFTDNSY

[12] = target: Dual specificity testis-specific protein kinase 1 (Homo sapiens) (UniProt Q15569); assay: Binding affinity to wild-type human full length TESK1 (R37 to S626 residues) expressed in bacterial expression system assessed as residual binding level at 10 uM by Kinomescan method relative to control
[13] = target: Glycogen synthase kinase-3 alpha (Homo sapiens) (UniProt P49840); assay: Binding affinity to wild-type human full length GSK3A (M1 to S483 residues) expressed in bacterial expression system assessed as residual binding level at 10 uM by Kinomescan method relative to control
Glycogen synthase kinase-3 alpha (Homo sapiens), sequence (P49840 2-483 limits assumed): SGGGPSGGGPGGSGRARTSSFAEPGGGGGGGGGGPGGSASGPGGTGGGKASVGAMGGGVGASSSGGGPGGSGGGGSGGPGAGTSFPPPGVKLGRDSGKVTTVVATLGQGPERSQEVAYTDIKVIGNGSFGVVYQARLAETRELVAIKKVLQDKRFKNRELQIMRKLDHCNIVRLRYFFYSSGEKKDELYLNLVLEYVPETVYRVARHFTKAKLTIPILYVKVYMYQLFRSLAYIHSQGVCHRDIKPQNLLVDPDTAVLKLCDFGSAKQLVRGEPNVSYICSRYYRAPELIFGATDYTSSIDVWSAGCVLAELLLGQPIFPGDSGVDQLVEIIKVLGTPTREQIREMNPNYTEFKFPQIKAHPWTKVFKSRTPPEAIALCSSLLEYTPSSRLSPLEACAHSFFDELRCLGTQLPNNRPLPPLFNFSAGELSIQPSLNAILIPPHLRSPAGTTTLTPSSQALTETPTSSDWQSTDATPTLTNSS

[14] = target: Dual specificity protein kinase CLK1 (Homo sapiens) (UniProt P49759); assay: Binding affinity to wild-type human full length CLK1 (M1 to I484 residues) expressed in bacterial expression system assessed as residual binding level at 10 uM by Kinomescan method relative to control
[15] = target: Cyclin-dependent kinase 18 (Homo sapiens) (UniProt Q07002); assay: Binding affinity to wild-type human full length PCTK3 (M3 to F474 residues) expressed in bacterial expression system assessed as residual binding level at 10 uM by Kinomescan method relative to control
[16] = target: cAMP-dependent protein kinase catalytic subunit beta (Homo sapiens) (UniProt P22694); assay: Binding affinity to wild-type human full length PKAC-beta (M1 to F351 residues) expressed in bacterial expression system assessed as residual binding level at 10 uM by Kinomescan method relative to control
[17] = target: Cyclin-dependent kinase 13 (Homo sapiens) (UniProt Q14004); assay: Binding affinity to wild-type human partial length CDC2L5 (H675 to S1054 residues) expressed in mammalian expression system assessed as residual binding level at 10 uM by Kinomescan method relative to control
[18] = target: Cyclin-dependent kinase 4 (Homo sapiens) (UniProt P11802); assay: Binding affinity to wild-type human full length CDK4 (M1 to E303 residues) expressed in mammalian expression system assessed as residual binding level at 10 uM by Kinomescan method relative to control
[19] = target: cAMP-dependent protein kinase catalytic subunit PRKX (Homo sapiens) (UniProt P51817); assay: Binding affinity to wild-type human partial length PRKX (M1 to F358 residues) expressed in bacterial expression system assessed as residual binding level at 10 uM by Kinomescan method relative to control
cAMP-dependent protein kinase catalytic subunit PRKX (Homo sapiens), sequence (P51817 whole entry, the tested form may be a part): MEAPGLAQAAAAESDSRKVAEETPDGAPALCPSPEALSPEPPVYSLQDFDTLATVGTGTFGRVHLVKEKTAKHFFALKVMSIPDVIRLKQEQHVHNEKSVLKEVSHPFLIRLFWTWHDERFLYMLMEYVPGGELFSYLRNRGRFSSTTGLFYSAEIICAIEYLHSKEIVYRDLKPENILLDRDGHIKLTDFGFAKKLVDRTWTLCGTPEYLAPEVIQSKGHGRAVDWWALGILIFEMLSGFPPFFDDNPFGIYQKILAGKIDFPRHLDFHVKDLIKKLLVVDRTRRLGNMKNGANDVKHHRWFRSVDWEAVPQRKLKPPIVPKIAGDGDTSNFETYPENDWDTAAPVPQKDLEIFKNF

NCI-H727 = assay: Cytotoxicity against human NCI-H727 cells assessed as growth inhibition incubated for 48 hrs by Hoechst 33342 staining based assay; assay type: cell-based; settings: NCI-H727, 48 h
[20] = target: Tyrosine-protein kinase Srms (Homo sapiens) (UniProt Q9H3Y6); assay: Binding affinity to wild-type human partial length SRMS (L208 to P488 residues) expressed in mammalian expression system assessed as residual binding level at 10 uM by Kinomescan method relative to control
[21] = target: Ephrin type-A receptor 5 (Homo sapiens) (UniProt P54756); assay: Binding affinity to wild-type human partial length EPHA5 (T627 to V930 residues) expressed in bacterial expression system assessed as residual binding level at 10 uM by Kinomescan method relative to control
Ephrin type-A receptor 5 (Homo sapiens), sequence (P54756 whole entry, the tested form may be a part): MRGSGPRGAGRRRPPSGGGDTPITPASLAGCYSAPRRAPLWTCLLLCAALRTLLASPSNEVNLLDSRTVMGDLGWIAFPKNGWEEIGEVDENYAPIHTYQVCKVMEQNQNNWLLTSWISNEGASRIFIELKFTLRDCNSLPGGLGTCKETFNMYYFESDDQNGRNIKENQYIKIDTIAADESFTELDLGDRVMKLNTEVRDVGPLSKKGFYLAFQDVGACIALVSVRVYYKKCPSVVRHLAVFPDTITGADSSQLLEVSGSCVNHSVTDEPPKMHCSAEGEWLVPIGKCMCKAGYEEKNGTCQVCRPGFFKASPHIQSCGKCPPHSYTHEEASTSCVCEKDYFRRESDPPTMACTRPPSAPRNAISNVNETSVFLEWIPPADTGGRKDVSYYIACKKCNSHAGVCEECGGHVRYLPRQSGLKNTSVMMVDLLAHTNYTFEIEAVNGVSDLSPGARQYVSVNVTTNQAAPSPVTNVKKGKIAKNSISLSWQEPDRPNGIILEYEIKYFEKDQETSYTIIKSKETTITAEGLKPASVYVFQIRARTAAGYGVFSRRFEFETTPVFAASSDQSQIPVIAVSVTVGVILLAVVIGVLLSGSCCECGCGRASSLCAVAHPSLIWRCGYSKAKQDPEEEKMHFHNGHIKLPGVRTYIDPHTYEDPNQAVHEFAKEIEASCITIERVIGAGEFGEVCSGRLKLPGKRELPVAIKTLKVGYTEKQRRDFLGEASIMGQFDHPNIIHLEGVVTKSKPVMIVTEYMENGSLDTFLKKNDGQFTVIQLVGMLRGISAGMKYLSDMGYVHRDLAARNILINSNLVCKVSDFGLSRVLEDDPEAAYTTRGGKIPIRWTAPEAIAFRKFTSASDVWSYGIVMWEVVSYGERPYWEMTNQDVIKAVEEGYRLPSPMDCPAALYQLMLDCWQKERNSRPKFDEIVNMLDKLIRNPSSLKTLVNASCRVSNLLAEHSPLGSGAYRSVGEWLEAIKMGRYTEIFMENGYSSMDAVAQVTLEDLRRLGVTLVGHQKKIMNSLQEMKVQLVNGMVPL

[22] = target: Serine/threonine-protein kinase 17B (Homo sapiens) (UniProt O94768); assay: Binding affinity to wild-type human full length DRAK2 (M1 to C372 residues) expressed in bacterial expression system assessed as residual binding level at 10 uM by Kinomescan method relative to control
Serine/threonine-protein kinase 17B (Homo sapiens), sequence (O94768 whole entry, the tested form may be a part): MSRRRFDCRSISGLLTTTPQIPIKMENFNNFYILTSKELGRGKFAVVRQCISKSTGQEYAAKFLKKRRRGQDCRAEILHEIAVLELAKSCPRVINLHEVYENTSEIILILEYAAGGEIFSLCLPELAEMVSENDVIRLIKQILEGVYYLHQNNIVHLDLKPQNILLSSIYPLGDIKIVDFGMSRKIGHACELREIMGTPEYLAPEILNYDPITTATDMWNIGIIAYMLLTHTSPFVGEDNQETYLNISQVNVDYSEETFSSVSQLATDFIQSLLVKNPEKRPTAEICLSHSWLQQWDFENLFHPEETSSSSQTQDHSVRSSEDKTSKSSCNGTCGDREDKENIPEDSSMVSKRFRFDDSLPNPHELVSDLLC

[23] = target: Serine/threonine-protein kinase 17A (Homo sapiens) (UniProt Q9UEE5); assay: Binding affinity to wild-type human partial length DRAK1 (R32 to E363 residues) expressed in bacterial expression system assessed as residual binding level at 10 uM by Kinomescan method relative to control
[24] = target: Protein kinase C theta type (Homo sapiens) (UniProt Q04759); assay: Binding affinity to wild-type human partial length PRKCQ (L350 to S706 residues) expressed in bacterial expression system assessed as residual binding level at 10 uM by Kinomescan method relative to control

Tyrosine-protein kinase FRK (Homo sapiens), sequence (P42685 whole entry, the tested form may be a part): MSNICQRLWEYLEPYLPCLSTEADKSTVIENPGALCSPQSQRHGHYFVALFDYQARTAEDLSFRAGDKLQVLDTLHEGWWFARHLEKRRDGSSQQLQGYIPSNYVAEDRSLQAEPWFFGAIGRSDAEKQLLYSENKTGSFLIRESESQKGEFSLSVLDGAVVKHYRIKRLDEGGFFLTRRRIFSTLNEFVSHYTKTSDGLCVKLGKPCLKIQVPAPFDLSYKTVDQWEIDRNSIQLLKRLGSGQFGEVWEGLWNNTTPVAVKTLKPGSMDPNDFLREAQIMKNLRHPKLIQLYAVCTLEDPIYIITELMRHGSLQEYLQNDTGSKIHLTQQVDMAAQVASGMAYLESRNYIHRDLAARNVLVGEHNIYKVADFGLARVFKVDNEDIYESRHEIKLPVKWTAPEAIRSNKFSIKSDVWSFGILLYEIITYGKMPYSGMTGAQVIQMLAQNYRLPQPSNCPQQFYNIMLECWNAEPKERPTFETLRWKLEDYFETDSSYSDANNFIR

SMILES: O=C(Nc1cc(-c2cn(CCNc3c4c(nc5ccccc35)CCCC4)nn2)ccn1)Nc1cccc2c1C1CCCCN1C2=O (racemic)
- Activity [1]: 99%
- Activity [2]: 0.95%
- Activity [3]: 100%
- Activity [4]: 49%
- Activity [5]: 100%
- Activity [6]: 2.8%
- Activity [7]: 1.4%
- Activity [8]: 100%
- Activity [9]: 33%
- Activity [10]: 97%
- Activity [11]: 2.7%
- Activity [12]: 75%
- Activity [13]: 0.3%
- Activity [14]: 4.5%
- Activity [15]: 6.2%
- Activity [16]: 99%
- Activity [17]: 0.61%
- Activity [18]: 3%
- Activity [19]: 15%
- IC50 (NCI-H727): 2000 nM
- Activity [20]: 82%
- Activity [21]: 81%
- Activity [22]: 1.7%
- Activity [23]: 0.3%
- Activity [24]: 27%
